{"source": "paper PMC8825254", "about": "“Rational design of Striga hermonthica-specific seed germination inhibitors” (Plant Physiology, 2021)", "key": {"[1]": {"target": "T1, ShHTL7 (Striga hermonthica, UniProt A0A0M3PNA2)", "T1 sequence (A0A0M3PNA2 1-271)": "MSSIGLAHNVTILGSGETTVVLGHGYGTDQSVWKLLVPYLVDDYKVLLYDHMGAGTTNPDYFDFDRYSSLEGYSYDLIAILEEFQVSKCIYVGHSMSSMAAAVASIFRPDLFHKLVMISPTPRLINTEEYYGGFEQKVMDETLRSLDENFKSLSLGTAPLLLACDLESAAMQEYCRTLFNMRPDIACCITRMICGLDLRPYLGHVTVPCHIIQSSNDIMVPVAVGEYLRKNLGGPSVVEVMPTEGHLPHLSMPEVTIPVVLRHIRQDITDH", "test": "YLG hydrolysis competition assay with ShHTL7", "format": "biochemical", "procedure": "About 0.33 µM of ShHTL7 protein was used to conduct in vitro hydrolysis of YLG (1 µM) as a substrate in a total volume of 100 µL of phosphate-buffered saline (1× PBS) containing 0.1% DMSO in 96-well black plate (Greiner Kremsmünster, Austria; [Tsuchiya et al., 2015]). The hydrolysis of YLG over time and changes in the fluorescence intensity was measured by SpectraMax i3 (Molecular Devices, San Jose, CA, USA) using an excitation wavelength of 480 nm and detection wavelength of 520 nm and recorded at 10 min intervals for 2 h. YLG in 1× PBS without protein was used as a control. […] Measurement of the fluorescence was conducted in SpectraMax i3 (Molecular Devices) using the above-mentioned method. The relative fluorescence unit was calculated by subtracting the auto-fluorescence of YLG in the buffer from the fluorescence values of YLG in the presence of a protein. The inhibitory curve and IC50 were determined using https://www.aatbio.com/tools/ic50-calculator website."}, "[2]": {"target": "T2, OsD14 (Oryza sativa subsp. japonica, UniProt Q10QA5)", "T2 construct": "made in house; host or cells: Escherichia coli BL21 (DE3)", "T2 sequence (Q10QA5 1-318)": "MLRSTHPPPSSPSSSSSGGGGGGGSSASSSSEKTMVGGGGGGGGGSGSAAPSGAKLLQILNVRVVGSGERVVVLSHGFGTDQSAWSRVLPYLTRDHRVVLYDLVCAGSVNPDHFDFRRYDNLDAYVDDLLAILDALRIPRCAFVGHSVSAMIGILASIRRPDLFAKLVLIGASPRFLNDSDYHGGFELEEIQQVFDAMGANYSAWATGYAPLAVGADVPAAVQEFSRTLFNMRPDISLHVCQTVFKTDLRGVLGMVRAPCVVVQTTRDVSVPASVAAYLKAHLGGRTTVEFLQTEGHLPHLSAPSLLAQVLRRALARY", "test": "YLG hydrolysis competition assay with OsD14", "format": "biochemical, rice (Oryza sativa)"}, "[3]": {"target": "T1, ShHTL7", "test": "DSF thermal stability of ShHTL7", "format": "binding", "details": "for Effect on SYPRO orange fluorescence peak of ShHTL7: 0 to 100 µM, result in words", "procedure": "About 10 µM of ShHTL7 purified protein was incubated with various concentrations of KK023-N1, Triton X-100, or KK094 (ranging from 0 to 100 µM) for 30 min. Then SYPRO Orange (reporter dye) was added to 1× final concentration. The reactions were carried out in 25 µL 1× PBs buffer. The assay was performed on CFX96 Real-Time System (BIO-RAD, Hercules, CA, USA) thermal cycler on 96-well quantitative polymerase chain reaction (qPCR) white plate, and the plate was sealed with adhesive qPCR plate seal to prevent samples evaporation ([Bai et al., 2019]). First, samples were heated to 25°C for 1 min followed by linear increase in the temperature ramp from 25°C to 99°C at a rate of 0.5°C/15 s. The change in the protein folding was monitored by the changes in the fluorescence of the reporter dye, and the data were analyzed by the machine software that plots the inflection point of fluorescence against temperature. Data were exported into Excel, and replicates were averaged to generate the graph."}, "[4]": {"target": "ShHTL5 (Striga hermonthica, UniProt A0A0M5I297)", "sequence (A0A0M5I297 entry or part of it)": "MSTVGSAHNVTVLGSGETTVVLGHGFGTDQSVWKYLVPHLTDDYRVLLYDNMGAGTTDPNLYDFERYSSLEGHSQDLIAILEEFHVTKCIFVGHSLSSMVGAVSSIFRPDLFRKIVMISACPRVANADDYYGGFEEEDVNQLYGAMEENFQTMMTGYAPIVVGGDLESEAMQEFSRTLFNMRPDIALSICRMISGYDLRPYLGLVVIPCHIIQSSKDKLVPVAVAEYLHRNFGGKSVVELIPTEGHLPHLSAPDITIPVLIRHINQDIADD", "test": "YLG hydrolysis competition assay with ShHTL5", "format": "biochemical", "details": "result in words"}, "[5]": {"system": "Striga hermonthica seeds", "test": "Striga seed germination bioassay (seeds from Sudan)", "format": "in vivo", "details": "for Reduction in Striga seed germination compared to the GR24 treatment: 20-40 µM inhibitor", "procedure": "Striga seeds were surface sterilized by 20% Sodium hypochlorite (NaClO) for 10 min followed by successive 6 times washing with sterilized MilliQ water. Seeds were kept to dry under the laminar flow cabinet, and ∼50–100 sterilized Striga seeds were spread uniformly on a glass fiber filter paper disc (9 mm). For preconditioning, around 12 discs were put in a petri plate on a filter paper moistened with 3 mL sterilized MilliQ water. Plates were then sealed with parafilm and kept in an incubator for 10 d at 30°C (in dark). After preconditioning, plates were removed from the incubator and dried, and discs were pre-treated with different concentrations (0, 5, 10, 20, 40, 80, 160, 320, and 640 μM) of KK023-N1, KK023-N2, Triton X-100, or KK094 for 24 h. Next day, a combination of the inhibitors (same concentrations) along with GR24 (0.5 nM or 1 nM) was applied, and discs were incubated at 30°C for 24 h. For inhibitory effect of KK023-N1 and -N2 on Striga seeds obtained from Kenya, seeds were treated with (0, 3, 6, 12, 25, 50,100, 200, 400, and 800 μM). After image scanning, germinated and nongerminated seeds were counted and germination rate (%) was calculated by using SeedQuant software ([Braguy et al., 2021)]."}, "[6]": {"system": "Rice seeds (cv Nipponbare)", "test": "Rice germination and seedling growth in response to inhibitors", "format": "in vivo, rice (Oryza sativa)", "details": "result in words", "procedure": "Rice seeds (cv Nipponbare) were surface sterilized in 2.5% NaClO and 0.05% of Tween-20 for 10 min, and rinsed 6 times with sterilized MilliQ water. Seeds were imbibed in sterilized water at 30°C for 24 h in the dark. Next day, ∼3 mL of each inhibitor at different concentrations (3, 6, 12, 25, 50, and 100 μM) was added along with 0.5 Murashige and Skoog (MS) medium into 24-well plate, and one imbibed rice seed was placed in each well. The experiment was performed in six replications (one plant/well, n = 6) for each concentration. Nontreated rice seeds in 0.5-MS solution were included as a control. Seeds were allowed to germinate at 30°C in the dark for 48 h for monitoring seeds germination, and seeds were moved to a growth chamber with white fluorescent light (130–180 μM m^−2 s^−1) and12 h:12 h (Light/Dark (L/D)) period at 28°C. After 1 week, length of rice seedlings was measured and recorded, and pictures of seedlings were taken."}, "[7]": {"system": "Rice d17 seedlings", "test": "Rice micro tillering assay, SL-deficient mutant d17 with GR24", "format": "in vivo, rice (Oryza sativa)", "details": "compound with 1.0 µM GR24; result in words", "procedure": "(§1) Rice seeds of WT (cv Nipponbare) or SL-deficient mutant (d17), were surface sterilized with 2.5% NaClO and 0.05% of Tween-20 for 10 min, and rinsed 6 times with sterilized MilliQ water. About 30 seeds were placed on sterilized Magenta GA-7 plant culture box containing 0.5% MS medium with 0.4% agar and incubated at 30°C in dark. After 2 d, boxes were moved to a growth chamber and allowed to grow for another 5 d under fluorescent white light (130–180 μM m^−2 s^−1). Equally grown seedlings were transplanted in 50-mL black tubes filled with Hoagland nutrient solution (1 seedling/tube). Seedlings were treated with 10, 50, and 100 µM of each compound (KK023-N1, Triton X-100, and KK094). The compounds were applied twice a week for 2 weeks to test their effects on the growth of WT plants. SL-deficient seedlings (d17) were treated as WT but with the addition of 1 µM GR24. Number of tillers per plant, plant height, and dry biomass were measured at final harvest."}, "[8]": {"system": "Rice WT (cv Nipponbare) seedlings", "test": "Rice micro tillering assay, WT, hydroponics", "format": "in vivo, rice (Oryza sativa)", "details": "10, 50 and 100 µM, 2 weeks, result in words", "procedure": "as §1"}, "[9]": {"target": "T1, ShHTL7", "parameters": "method as in Holbrook-Smith et al., 2016; Yoneyama, 2016", "details": "previously reported, ref Holbrook-Smith et al., 2016, Yoneyama, read-out: IC50, competitive inhibition of ShHTL7-mediated YLG hydrolysis; cited from earlier work"}, "[10]": {"system": "Striga hermonthica", "test": "Striga emergence study in infested rice pots under greenhouse conditions", "format": "in vivo, Striga hermonthica on rice cv IAC165", "details": "for Change in Striga emergence compared to mock: Figure 10B; for Rice plant height, change: Striga-infested pots, Figure 10C", "procedure": "Approximately 6,000 Striga seeds (20 mg) were weighed, mixed with sand/soil mixture (1:2 ratio), and put into a 3-L perforated plastic pot containing 0.5-L clean sand/soil mixture in the bottom. The pots were kept under greenhouse-controlled conditions at 30°C and kept moist with water for Striga preconditioning for 10 d. Formulated KK023-N1 and Triton X-100 were applied (at 100 mL per pot) at 10 and 100 µM concentration. Then three rice seedlings (cv IAC165, 10 d old) were planted in each pot after 24 h of inhibitor application. All the treatments were applied continuously twice per week for 4 weeks. Water with same amount of solvent (Cyclohexanone+Atlas-G) was used as a control. Pots were irrigated with 200 mL of Hoagland’s nutrient solution with low phosphate (4 µM) when needed. The rice plants were allowed to grow under greenhouse conditions for 10 weeks and the emerged Striga plants were counted from each pot. The height of rice plants was also measured to see impact of Striga infestation on host growth."}, "[11]": {"details": "0.33 µM ShHTL7, 1 µM YLG, read-out: IC50, inhibition of ShHTL7-mediated YLG hydrolysis"}}, "note": "Read-outs that look alike come from different tables or passages of the source."}
{"compound": "CC1=C[C@H](O/C=C2/C(=O)O[C@@H]3c4ccccc4C[C@H]23)OC1=O", "note": "[GR24]", "values": [{"measurement": "IC50", "setting": "[1]; [11]", "value": 0.27, "unit": "µM"}, {"measurement": "IC50", "setting": "[2]; 0.33 µM OsD14, 1 µM YLG, read-out: IC50, inhibition of OsD14-mediated YLG hydrolysis", "value": 2.59, "unit": "µM"}, {"measurement": "Decrease of ShHTL7 melting temperature", "setting": "[3]", "value": 7, "unit": "°C"}, {"measurement": "Melting temperature of ShHTL7", "setting": "[3]; high concentrations of compound, 50°C without", "value": 43, "unit": "°C"}]}
{"compound": "COc1ccc(CCCc2cccc3c2CCN3C(=O)n2nccn2)cc1", "note": "[KK023-N2]", "values": [{"measurement": "Effect on YLG hydrolysis by ShHTL5", "setting": "[4]", "value": "did not influence the YLG hydrolysis"}, {"measurement": "IC50", "setting": "[1]", "value": 2.15, "unit": "µM"}, {"measurement": "IC50", "setting": "[2]; Figure 3D-F, mean ± SD, n = 3, no unit printed with values (x-axis µM), read-out: IC50, OsD14-mediated YLG hydrolysis (Figure 3)", "value": "> 50", "unit": "µM"}, {"measurement": "Reduction in Striga seed germination compared to the GR24 treatment", "setting": "[5]; GR24 0.5 or 1.0 nM", "value": "around 42%"}, {"measurement": "Effect on rice seedling plant height", "setting": "[6]; all treatments (3-100 µM), 1 week", "value": "no effect on plant height was observed"}, {"measurement": "Effect on rice seed germination", "setting": "[6]; up to 100 µM", "value": "did not detect any effect on seed germination"}, {"measurement": "Phenotype of treated rice seedlings versus control", "setting": "[6]; up to 100 µM", "value": "did not show any significant phenotypic difference"}]}
{"compound": "O=C(N1CCc2ccccc21)n1ccnn1", "note": "[KK094]", "values": [{"measurement": "IC50", "setting": "[1]", "value": "> 25", "unit": "µM"}, {"measurement": "Effect on GR24 action on tillering of d17 rice", "setting": "[7]", "value": "blocked D14, resulting in increased tillering phenotype"}, {"measurement": "Effect on SYPRO orange fluorescence peak of ShHTL7", "setting": "[3]", "value": "did not change the fluorescence peak"}, {"measurement": "Reduction in Striga seed germination", "setting": "[5]; 20 µM inhibitor, GR24 0.5 or 1.0 nM", "value": 50, "unit": "%"}, {"measurement": "Inhibition of Striga seed germination", "setting": "[5]; 80 µM, result in words", "value": "complete inhibition"}, {"measurement": "inhibition at 100 µM", "setting": "[5]; Striga hermonthica, 100 µM", "value": 100, "unit": "%"}, {"measurement": "Effect on dry biomass of WT rice", "setting": "[8]", "value": "reduction in plant height and dry biomass"}, {"measurement": "Effect on plant height of WT rice", "setting": "[8]", "value": "reduction in plant height"}, {"measurement": "Effect on tillering of WT rice", "setting": "[8]", "value": "significant increase in rice tillering"}]}
{"compound": "CCOC(=O)C1(Cc2cccc(C(F)(F)F)c2)CCN(Cc2ccc(C#CCCO)cc2)CC1", "note": "[Soporidine]", "values": [{"measurement": "IC50", "setting": "[9]", "value": 12.5, "unit": "µM"}]}
{"compound": "Triton X-100 [reference compound]", "values": [{"measurement": "IC50", "setting": "[1]; [11]", "value": 0.47, "unit": "µM"}, {"measurement": "Change in Striga emergence compared to mock", "setting": "[10]; 10 µM", "value": -13, "unit": "%"}, {"measurement": "Rice plant height, change", "setting": "[10]; 10 µM", "value": -23, "unit": "%"}, {"measurement": "Change in Striga emergence compared to mock", "setting": "[10]; 100 µM", "value": -25, "unit": "%"}, {"measurement": "Rice plant height, change", "setting": "[10]; 100 µM", "value": -4, "unit": "%"}, {"measurement": "Effect on GR24 action on tillering of d17 rice", "setting": "[7]", "value": "did not block the GR24 effect on rice tillers"}, {"measurement": "Effect on SYPRO orange fluorescence peak of ShHTL7", "setting": "[3]", "value": "reduction in the peak fluorescence"}, {"measurement": "Reduction in Striga seed germination compared to the GR24 treatment", "setting": "[5]; GR24 0.5 or 1.0 nM", "value": 31, "unit": "%"}]}
